In patent publication US8846730B2, “Compounds as cannabinoid receptor ligands” (priority 2008, dated 2014):
Read-outs that look alike come from different tables or passages of the source.

Tests used:
animal models of pain = details: acute thermal, persistent, inflammatory and neuropathic pain models; cited from earlier work
rat CB2 receptors = rat CB2 receptors (Rattus norvegicus (Rat), UniProt Q9QZN9); assay: rat CB2 radioligand binding assay ([3H]CP 55,940 competition); details: HEK293 membranes, 0.5 nM [3H]CP 55,940
How it was run: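 Membranes from HEK293 cells stably expressing rat CB2 (20 μg protein/well) were incubated 45 min at 30 °C with 0.5 nM [3H]CP 55,940 and five displacer concentrations, in pH 7.4 Tris buffer with 0.5 mg/mL BSA. Bound radioactivity was measured by filtration. Nonspecific binding was defined with 10 μM unlabeled CP 55,940.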

[1] = molecular target: rat CB2 receptors (HEK cells) (Rattus norvegicus (Rat), UniProt Q9QZN9); assay: rat CB2 cyclase functional assay (HitHunter cAMP); assay type: cell-based
Description: The cyclase functional assays were performed using the HitHunter™ cAMP assay kit from DiscoveRx (Fremont, Calif.) according to vendor's protocol. Briefly, HEK cells expressing CB2 or CB1 receptors (rat or human) were detached using cell dissociation buffer (Invitrogen, Carlsbad, Calif.), dispersed and placed in suspension at 10,000 cells per well in 96 well plates prior to the assay. Cell suspensions were incubated at 37° C. for 20 min with variable concentrations of test ligands and or 10 μM CP 55,940-positive control in the presence of a fixed concentration of forskolin (18 μM for rat CB2 and 37 μM for rat CB1) in Dulbescco's phosphate-buffered saline (Invitrogen, Carlsbad, Calif.) supplemented with bovine serum albumin (0.01% final concentration). The reactions were terminated by the addition of lysis buffer and the luminescence was detected following the procedure according to the manufacturer's instructions. EC50 values were calculated using sigmoidal dose-response curve fitting from Prism (GraphPad).

human CB2 receptors = human CB2 receptors (Homo sapiens (Human), UniProt P34972); assay: human CB2 radioligand binding assay ([3H]CP 55,940 competition)
Chain of human CB2 receptors (P34972 whole entry): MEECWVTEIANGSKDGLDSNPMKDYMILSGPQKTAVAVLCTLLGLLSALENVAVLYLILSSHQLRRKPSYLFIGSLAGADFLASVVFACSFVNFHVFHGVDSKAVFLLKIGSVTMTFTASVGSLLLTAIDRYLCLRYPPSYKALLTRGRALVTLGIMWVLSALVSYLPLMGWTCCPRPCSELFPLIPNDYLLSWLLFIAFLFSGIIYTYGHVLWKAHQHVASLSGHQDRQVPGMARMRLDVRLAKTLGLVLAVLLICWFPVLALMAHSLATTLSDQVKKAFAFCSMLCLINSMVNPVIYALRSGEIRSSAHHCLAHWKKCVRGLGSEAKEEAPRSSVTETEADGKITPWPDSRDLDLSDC
How it was run: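 Membranes from HEK293 cells stably expressing human CB2 (5 μg protein/well) competed against 0.5 nM [3H]CP 55,940 with five concentrations of test ligand (0.01 nM to 10 μM), pH 7.4 Tris buffer with BSA, 90 min at 30 °C. Filtration and scintillation counting; nonspecific binding with 10 μM unlabeled CP 55,940.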

[2] = molecular target: rat CB1 receptors (HEK cells) (Rattus norvegicus (Rat), UniProt P20272); assay: rat CB1 cyclase functional assay (HitHunter cAMP); assay type: cell-based
Chain of rat CB1 receptors (HEK cells) (P20272 whole entry): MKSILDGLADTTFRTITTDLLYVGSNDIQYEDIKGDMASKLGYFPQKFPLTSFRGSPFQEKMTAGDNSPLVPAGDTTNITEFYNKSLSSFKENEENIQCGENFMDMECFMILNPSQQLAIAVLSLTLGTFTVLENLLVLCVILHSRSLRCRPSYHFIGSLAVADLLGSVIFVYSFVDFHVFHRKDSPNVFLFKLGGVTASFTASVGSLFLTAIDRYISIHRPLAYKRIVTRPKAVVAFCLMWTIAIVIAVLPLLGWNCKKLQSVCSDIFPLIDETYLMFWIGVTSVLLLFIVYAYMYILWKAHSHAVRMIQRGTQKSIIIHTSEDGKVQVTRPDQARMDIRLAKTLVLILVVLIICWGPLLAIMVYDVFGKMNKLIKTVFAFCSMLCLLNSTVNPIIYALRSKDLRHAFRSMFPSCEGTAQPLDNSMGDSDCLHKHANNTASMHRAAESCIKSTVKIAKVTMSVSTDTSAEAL

rodent models of pain = details: neuropathic, incisional, chronic and acute inflammatory pain; cited from earlier work
[3] = test system: rat formalin model of persistent pain; details: cited from earlier work
microglial = details: in vitro; cited from earlier work
[4] = HEK293 membranes, 0.5 nM [3H]CP 55,940, read-out: human CB2 (Ki)
[5] = HEK cells, forskolin 18 μM, read-out: rat CB2 cyclase (EC50)

SMILES: CN1CCCCC1Cn1cc(C(=O)c2cc([N+](=O)[O-])ccc2I)c2ccccc21 (stereo not drawn) [AM-1241]
- analgesic efficacy (animal models of pain): robust analgesic efficacy

SMILES: COCCn1cc(C(C)(C)C)s/c1=N\C(=O)c1cc(C(F)(F)F)ccc1OCc1cnccn1 [Example 41, N-[(2Z)-5-tert-butyl-3-(2-methoxyethyl)-1,3-thiazol-2(3H)-ylidene]-2-(pyrazin-2-ylmethoxy)-5-(trifluoromethyl)benzamide]
- Ki (rat CB2 receptors): 14 nM
- EC50 [1]: 4.49 nM
- Ki (human CB2 receptors; [4]): 45 nM
- EC50 [2]: 5700 nM

SMILES: CN1C(=O)CC[C@H]1COc1ccc(C(F)(F)F)cc1C(=O)/N=c1\sc(C(C)(C)C)cn1C[C@H]1CCCO1 [Example 43, N-[(2Z)-5-tert-butyl-3-[(2R)-tetrahydrofuran-2-ylmethyl]-1,3-thiazol-2(3H)-ylidene]-2-{[(2S)-1-methyl-5-oxopyrrolidin-2-yl]methoxy}-5-(trifluoromethyl)benzamide]
- Ki (rat CB2 receptors): 3.3 nM
- EC50 [1, 5]: 2.09 nM
- Ki (human CB2 receptors; [4]): 62 nM
- EC50 [2]: 6560 nM

SMILES: CC(C)(C)c1cn(C[C@H]2CCCO2)/c(=N/C(=O)c2cc(C(F)(F)F)ccc2OC[C@@H]2CCCN2)s1 [Example 44, N-[(2Z)-5-tert-butyl-3-[(2R)-tetrahydrofuran-2-ylmethyl]-1,3-thiazol-2(3H)-ylidene]-2-[(2S)-pyrrolidin-2-ylmethoxy]-5-(trifluoromethyl)benzamide]
- Ki (rat CB2 receptors): 2 nM
- EC50 [1]: 0.39 nM
- Ki (human CB2 receptors; [4]): 4.6 nM
- EC50 [2]: 4730 nM

SMILES: CCN1CCC[C@H]1COc1ccc(C(F)(F)F)cc1C(=O)/N=c1\sc(C(C)(C)C)cn1C[C@H]1CCCO1 [Example 45, N-[(2Z)-5-tert-butyl-3-[(2R)-tetrahydrofuran-2-ylmethyl]-1,3-thiazol-2(3H)-ylidene]-2-{[(2S)-1-ethylpyrrolidin-2-yl]methoxy}-5-(trifluoromethyl)benzamide]
- Ki (rat CB2 receptors): 8.6 nM
- EC50 [1, 5]: 0.83 nM
- Ki (human CB2 receptors; [4]): 8.2 nM
- EC50 [2]: 5010 nM

SMILES: CC(C)N1CCC[C@H]1COc1ccc(C(F)(F)F)cc1C(=O)/N=c1\sc(C(C)(C)C)cn1C[C@H]1CCCO1 [Example 46, N-[(2Z)-5-tert-butyl-3-[(2R)-tetrahydrofuran-2-ylmethyl]-1,3-thiazol-2(3H)-ylidene]-2-{[(2S)-1-isopropylpyrrolidin-2-yl]methoxy}-5-(trifluoromethyl)benzamide]
- Ki (rat CB2 receptors): 21 nM
- EC50 [1, 5]: 7.32 nM
- Ki (human CB2 receptors; [4]): 102 nM
- EC50 [2]: 5420 nM

SMILES: CC(C)(C)c1cn(C[C@H]2CCCO2)/c(=N/C(=O)c2cc(C(F)(F)F)ccc2OC[C@@H]2CCCN2S(C)(=O)=O)s1 [Example 48, N-[(2Z)-5-tert-butyl-3-[(2R)-tetrahydrofuran-2-ylmethyl]-1,3-thiazol-2(3H)-ylidene]-2-{[(2S)-1-(methylsulfonyl)pyrrolidin-2-yl]methoxy}-5-(trifluoromethyl)benzamide]
- Ki (rat CB2 receptors): 3 nM
- EC50 [1, 5]: 0.39 nM
- Ki (human CB2 receptors; [4]): 16 nM
- EC50 [2]: 8650 nM

SMILES: CC(C)(C)c1cn(C[C@H]2CCCO2)/c(=N/C(=O)c2cc(C(F)(F)F)ccc2OC[C@H]2CCC[N+]2(C)[O-])s1 (stereo partly drawn) [Example 49]
- Ki (rat CB2 receptors): 12 nM
- EC50 [1, 5]: 0.45 nM
- Ki (human CB2 receptors; [4]): 24 nM
- EC50 ([2]; HEK cells, forskolin 37 μM, read-out: rCB1 cyclase (EC50)): 7760 nM

SMILES: CC(C)(O)CCOc1ccc(C(F)(F)F)cc1C(=O)/N=c1\sc(C(C)(C)C)cn1C[C@H]1CCCO1 [Example 50, N-[(2Z)-5-tert-butyl-3-[(2R)-tetrahydrofuran-2-ylmethyl]-1,3-thiazol-2(3H)-ylidene]-2-(3-hydroxy-3-methylbutoxy)-5-(trifluoromethyl)benzamide]
- Ki (rat CB2 receptors): 0.5 nM
- EC50 [1]: 1.21 nM
- Ki (human CB2 receptors; [4]): 1.3 nM
- EC50 [2]: 1870 nM

SMILES: CN1CCC[C@H]1COc1ccc(C(F)(F)F)cc1C(=S)/N=c1\sc(C(C)(C)C)cn1C[C@H]1CCCO1 [Example 51, N-[(2Z)-5-tert-butyl-3-[(2R)-tetrahydrofuran-2-ylmethyl]-1,3-thiazol-2(3H)-ylidene]-2-{[(2S)-1-methylpyrrolidin-2-yl]methoxy}-5-(trifluoromethyl)benzenecarbothioamide]
- Ki (rat CB2 receptors): 0.9 nM
- EC50 [1, 5]: 0.34 nM
- Ki (human CB2 receptors; [4]): 1.3 nM
- EC50 [2]: 1320 nM

SMILES: CN1C[C@@H](F)C[C@H]1COc1ccc(C(F)(F)F)cc1C(=O)/N=c1\sc(C(C)(C)C)cn1C[C@H]1CCCO1 [Example 53, N-[(2Z)-5-tert-butyl-3-[(2R)-tetrahydrofuran-2-ylmethyl]-1,3-thiazol-2(3H)-ylidene]-2-{[(2S,4S)-4-fluoro-1-methylpyrrolidin-2-yl]methoxy}-5-(trifluoromethyl)benzamide]
- Ki (rat CB2 receptors): 3.6 nM
- EC50 [1, 5]: 0.12 nM
- Ki (human CB2 receptors; [4]): 3 nM
- EC50 [2]: 1130 nM

SMILES: CN1C[C@H](F)C[C@H]1COc1ccc(C(F)(F)F)cc1C(=O)/N=c1\sc(C(C)(C)C)cn1C[C@H]1CCCO1 [Example 54, N-[(2Z)-5-tert-butyl-3-[(2R)-tetrahydrofuran-2-ylmethyl]-1,3-thiazol-2(3H)-ylidene]-2-{[(2S,4R)-4-fluoro-1-methylpyrrolidin-2-yl]methoxy}-5-(trifluoromethyl)benzamide]
- Ki (rat CB2 receptors): 1.5 nM
- EC50 [1, 5]: 0.15 nM
- Ki (human CB2 receptors; [4]): 2 nM
- EC50 [2]: 362 nM

SMILES: CC(C)(C)c1cn(C[C@H]2CCCO2)/c(=N/C(=O)c2cc(C(F)(F)F)ccc2OCc2ccn[nH]2)s1 [Example 56, N-[(2Z)-5-tert-butyl-3-[(2R)-tetrahydrofuran-2-ylmethyl]-1,3-thiazol-2(3H)-ylidene]-2-(1H-pyrazol-5-ylmethoxy)-5-(trifluoromethyl)benzamide]
- Ki (rat CB2 receptors): 5.1 nM
- EC50 [1, 5]: 0.76 nM
- Ki (human CB2 receptors; [4]): 11 nM
- EC50 [2]: 3050 nM

SMILES: CC(C)(C)c1cn(C[C@H]2CCCO2)/c(=N/C(=O)c2cc(C(F)(F)F)ccc2OCCNCCO)s1 [Example 58, N-[(2Z)-5-tert-butyl-3-[(2R)-tetrahydrofuran-2-ylmethyl]-1,3-thiazol-2(3H)-ylidene]-2-{2-[(2-hydroxyethyl)amino]ethoxy}-5-(trifluoromethyl)benzamide]
- Ki (rat CB2 receptors): 10 nM
- EC50 [1]: 0.18 nM
- Ki (human CB2 receptors; [4]): 34 nM
- EC50 [2]: 2580 nM

SMILES: CN1CCC[C@H]1COc1ccc(C#N)cc1C(=O)/N=c1\sc(C(C)(C)C)cn1C[C@H]1CCCO1 [Example 59, N-[(2Z)-5-tert-butyl-3-[(2R)-tetrahydrofuran-2-ylmethyl]-1,3-thiazol-2(3H)-ylidene]-5-cyano-2-{[(2S)-1-methylpyrrolidin-2-yl]methoxy}benzamide]
- Ki (rat CB2 receptors): 9.4 nM
- EC50 [1, 5]: 0.13 nM
- Ki (human CB2 receptors; [4]): 43 nM
- EC50 [2]: 2270 nM

SMILES: CC(COc1ccc(C(F)(F)F)cc1C(=O)/N=c1\sc(C(C)(C)C)cn1C[C@H]1CCCO1)=NOC1CCCCO1 (stereo partly drawn) [Example 63, N-[(2Z)-5-tert-butyl-3-[(2R)-tetrahydrofuran-2-ylmethyl]-1,3-thiazol-2(3H)-ylidene]-2-({2-[(tetrahydro-2H-pyran-2-yloxy)imino]propyl}oxy)-5-(trifluoromethyl)benzamide]
- Ki (rat CB2 receptors): 6.6 nM
- EC50 [1, 5]: 2.15 nM
- Ki (human CB2 receptors): 25 nM
- EC50 [2]: > 27000 nM

SMILES: CC(C)(C)c1cn(C[C@H]2CCCO2)/c(=N/C(=O)c2cc(C(F)(F)F)ccc2OC[C@@H]2CNCCO2)s1 [Example 66, N-[(2Z)-5-tert-butyl-3-[(2R)-tetrahydrofuran-2-ylmethyl]-1,3-thiazol-2(3H)-ylidene]-2-[(2S)-morpholin-2-ylmethoxy]-5-(trifluoromethyl)benzamide]
- Ki (rat CB2 receptors): 5.1 nM
- EC50 [1]: 0.37 nM
- Ki (human CB2 receptors; [4]): 21 nM
- EC50 [2]: 5050 nM

SMILES: CC(C)(C)c1cn(C[C@H]2CCCO2)/c(=N/C(=O)c2cc(C(F)(F)F)ccc2OC[C@H](N)CO)s1 [Example 69, 2-{[(2R)-2-amino-3-hydroxypropyl]oxy}-N-[(2Z)-5-tert-butyl-3-[(2R)-tetrahydrofuran-2-ylmethyl]-1,3-thiazol-2(3H)-ylidene]-5-(trifluoromethyl)benzamide]
- Ki (rat CB2 receptors): 0.9 nM
- EC50 [1, 5]: 0.14 nM
- Ki (human CB2 receptors): 3.6 nM
- EC50 [2]: 1610 nM

SMILES: COc1ccc2c(c1)c(CCN1CCOCC1)c(C)n2C(=O)c1cccc(Cl)c1Cl [GW405833]
- efficacy in pain models (rodent models of pain): efficacious

SMILES: CCCCCCC(C)(C)c1cc(OC)c([C@@H]2C=C(CO)[C@@H]3C[C@H]2C3(C)C)c(OC)c1 [HU-308]
- antinociceptive response [3]: elicits an antinociceptive response

SMILES: CCCC(C)(C)c1ccc2c(c1)OC(C)(C)[C@@H]1CC=C(C)C[C@@H]21 [JWH-133]
- effect on β-amyloid-induced microglial activation and neurotoxicity (microglial): abrogated β-amyloid-induced microglial activation and neurotoxicity
